Records with an inconclusive call do not appear. The source made the active and inactive calls.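 How the source made its calls: active means compounds whose fitted AC50 for signal loss is at most twice the top valid dose tested; inconclusive means flat curve with 30 to 70% inhibition, or poor fit; inactive means the rest.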
Target: Leucyl-cystinyl aminopeptidase (Mus musculus) (UniProt Q8C129)
Assay: inhibition of mouse IRAP aminopeptidase activity – biochemical, Leu-AMC fluorescence, cherry-picked samples, set 2, selectivity assay for ERAP1 modulator project, dose response (AID 743340)
Conditions: purified IRAP, Leu-AMC cleavage fluorescence, 1 h

Chain of Leucyl-cystinyl aminopeptidase (Mus musculus) (Q8C129 whole entry, looked up): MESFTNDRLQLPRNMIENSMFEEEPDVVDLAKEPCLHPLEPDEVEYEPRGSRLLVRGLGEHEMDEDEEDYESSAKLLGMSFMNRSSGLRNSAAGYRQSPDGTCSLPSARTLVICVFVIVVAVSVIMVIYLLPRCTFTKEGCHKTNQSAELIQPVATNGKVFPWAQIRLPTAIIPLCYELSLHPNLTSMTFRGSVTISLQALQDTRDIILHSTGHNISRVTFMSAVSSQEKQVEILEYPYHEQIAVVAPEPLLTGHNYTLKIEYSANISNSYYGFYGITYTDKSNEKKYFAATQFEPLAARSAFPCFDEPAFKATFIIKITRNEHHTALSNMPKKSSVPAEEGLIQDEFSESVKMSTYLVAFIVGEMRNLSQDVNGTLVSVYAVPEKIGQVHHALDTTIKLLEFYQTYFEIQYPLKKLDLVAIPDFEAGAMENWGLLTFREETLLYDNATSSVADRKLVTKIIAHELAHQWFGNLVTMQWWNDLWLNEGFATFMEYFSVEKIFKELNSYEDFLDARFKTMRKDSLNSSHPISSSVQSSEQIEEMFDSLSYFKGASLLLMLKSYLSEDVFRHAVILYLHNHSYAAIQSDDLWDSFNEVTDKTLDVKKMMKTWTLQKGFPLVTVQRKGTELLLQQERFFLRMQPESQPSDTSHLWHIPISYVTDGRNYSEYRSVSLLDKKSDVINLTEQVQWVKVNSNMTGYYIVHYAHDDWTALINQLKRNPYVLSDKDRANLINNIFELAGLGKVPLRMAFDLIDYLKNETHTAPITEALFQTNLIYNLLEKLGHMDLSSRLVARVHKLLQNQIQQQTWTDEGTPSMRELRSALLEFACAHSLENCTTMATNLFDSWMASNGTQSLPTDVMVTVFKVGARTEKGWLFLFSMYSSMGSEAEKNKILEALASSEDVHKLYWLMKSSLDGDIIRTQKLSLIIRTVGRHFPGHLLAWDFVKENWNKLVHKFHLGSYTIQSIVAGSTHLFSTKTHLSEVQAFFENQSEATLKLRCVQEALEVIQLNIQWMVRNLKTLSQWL

SMILES	activity change, negative = inhibition (at 11 µM (top of the series))	further results
COC(=O)[C@H]1[C@H](CO)[C@H]2Cn3c(ccc(-c4ccncc4)c3=O)[C@H]2N1Cc1ccccc1F	inactive	
O=C(C[C@@H]1CC[C@@H]2[C@H](COC[C@H](O)CN2C(=O)Nc2cccc(Cl)c2)O1)N1CCCCC1	inactive	
Cc1noc(C)c1S(=O)(=O)Nc1ccc2c(c1)C(=O)N([C@H](C)CO)C[C@@H](C)[C@@H](CN(C)CC1CCCCC1)OCCCC[C@@H](C)O2	inactive	
CNC[C@H]1OCCCC[C@@H](C)Oc2ccc(NS(=O)(=O)c3ccc(C)cc3)cc2C(=O)N([C@@H](C)CO)C[C@H]1C	inactive	
C[C@@H]1CCCCO[C@@H](CN(C)Cc2ccc(C(=O)O)cc2)[C@@H](C)CN([C@H](C)CO)C(=O)c2cc(NC(=O)Nc3cccc4ccccc34)ccc2O1	inactive	
COc1ccc(CN(C)C[C@@H]2OCCCC[C@@H](C)Oc3ccc(NS(=O)(=O)c4cccs4)cc3C(=O)N([C@H](C)CO)C[C@@H]2C)cc1	inactive	
Cc1ccc2nc3c(cc(C(=O)NCc4ccccc4)c(=N)n3CCCn3ccnc3)c(=O)n2c1	inactive	
Cc1noc(C)c1NC(=O)N(C)C[C@@H]1Oc2c(NC(=O)Nc3ccccc3)cccc2C(=O)N([C@H](C)CO)C[C@@H]1C	inactive	
CCCN(C)C[C@@H]1OCCCC[C@@H](C)Oc2ccc(NS(=O)(=O)c3ccccc3)cc2C(=O)N([C@H](C)CO)C[C@@H]1C	inactive	
Cc1ccccc1-c1ccc2c(c1)O[C@@H](CN(C)Cc1ccc(C(=O)O)cc1)[C@@H](C)CN([C@@H](C)CO)S2(=O)=O	inactive	
CCCN(C)C[C@@H]1OCCCC[C@@H](C)Oc2ccc(NS(=O)(=O)c3ccc(C)cc3)cc2C(=O)N([C@@H](C)CO)C[C@@H]1C		activity change, negative = inhibition (at 5 µM (top of the series)): inactive
Cc1ccccc1-c1ccc2c(c1)O[C@@H](CN(C)Cc1ccc(C(=O)O)cc1)[C@@H](C)CN([C@H](C)CO)S2(=O)=O	inactive	
O=C(C[C@H]1CC[C@@H]2[C@H](COC[C@@H](O)CN2C(=O)Nc2cccc(Cl)c2)O1)N1CCCCC1	inactive	
N#Cc1c(N2CCNCC2)nc(-c2ccco2)c2c1CCCC2	inactive	
C[C@@H]1CCCCO[C@H](CN(C)C)[C@H](C)CN([C@H](C)CO)C(=O)c2cc(NS(=O)(=O)c3ccc(Cl)cc3)ccc2O1	inactive	
C[C@H]1CN([C@@H](C)CO)C(=O)c2cccc(NC(=O)Nc3ccc(C(F)(F)F)cc3)c2O[C@@H]1CN(C)C	inactive	
CO[C@@H]1CN(C)C(=O)c2ccc(NC(=O)Nc3cccc(Cl)c3)cc2OC[C@@H](C)NC[C@H]1C	inactive	
C[C@@H]1CN([C@H](C)CO)C(=O)c2cc(NC(=O)Nc3ccc(F)cc3)ccc2O[C@H]1CN(C)Cc1ccc(C(=O)O)cc1	inactive	
C[C@H]1CN([C@@H](C)CO)C(=O)c2cccc(NC(=O)Nc3ccc(F)cc3)c2O[C@@H]1CN(C)C(=O)Nc1ccc2c(c1)OCO2	inactive	
Cc1cc(=O)oc2c(CN3CCN(C)CC3)c(O)c(Cl)cc12	inactive	

SMILES	activity change, negative = inhibition (at 11 µM (top of the series))	further results
COc1ccc(NC(=O)Nc2ccc3c(c2)C(=O)N([C@H](C)CO)C[C@@H](C)[C@H](CN(C)Cc2ccc(C(=O)O)cc2)OCCCC[C@@H](C)O3)cc1	inactive	
C[C@@H]1CCCCO[C@@H](CN(C)C(=O)CCC(F)(F)F)[C@@H](C)CN([C@@H](C)CO)C(=O)c2cc(NS(=O)(=O)c3ccccc3)ccc2O1		activity change, negative = inhibition (at 2.6 µM (top of the series)): inactive
CCCNC(=O)C[C@@H]1CC[C@@H]2[C@H](COC[C@H](O)CN2C(=O)Nc2cccc(Cl)c2)O1	inactive	
C[C@@H]1CCCCO[C@@H](CN(C)Cc2ccc(C(=O)O)cc2)[C@H](C)CN([C@@H](C)CO)C(=O)c2cc(NS(=O)(=O)c3ccc(Cl)cc3)ccc2O1	inactive	
C[C@@H]1CN([C@H](C)CO)C(=O)c2cccc(NC(=O)Nc3ccccc3)c2O[C@@H]1CN(C)Cc1ccc(C(=O)O)cc1	inactive	
COc1ccc(CN(C)C[C@H]2OCCCC[C@@H](C)Oc3ccc(NS(=O)(=O)c4cccs4)cc3C(=O)N([C@@H](C)CO)C[C@@H]2C)cc1	inactive	
C[C@@H]1CCCCO[C@@H](CN(C)C)[C@@H](C)CN([C@@H](C)CO)C(=O)c2cc(NS(=O)(=O)c3ccc(Cl)cc3)ccc2O1	inactive	
COc1ccc2c3c([nH]c2c1)[C@H](CO)N(Cc1cc(F)ccc1F)CC31CN(C)C1	inactive	
C[C@H](CO)N1C[C@H](C)[C@H](CN(C)Cc2ccncc2)Oc2c(NC(=O)Nc3ccc(C(F)(F)F)cc3)cccc2C1=O	inactive	
CC(C)[C@@H](C(=O)N[C@@H](CCc1ccc(O)cc1)C(=O)O)N(C)C(=O)[C@H](CO)NC(=O)[C@@H](O)[C@H](N)CCCCCCCCl		AC50: 0.0449 µM
COc1ccc(CN(C)C[C@H]2OCCCC[C@@H](C)Oc3ccc(NS(=O)(=O)c4cccs4)cc3C(=O)N([C@@H](C)CO)C[C@H]2C)cc1	inactive	
NC(=NCCc1c[nH]c2ccccc12)NS(=O)(=O)c1cc(F)ccc1F	inactive	
CCCNC(=O)C[C@H]1CC[C@@H]2[C@H](COC[C@H](O)CN2C(=O)Nc2cccc(Cl)c2)O1	inactive	
C[C@H]1CN([C@@H](C)CO)C(=O)c2cccc(NC(=O)Nc3ccc4c(c3)OCO4)c2O[C@@H]1CN(C)CC1CC1	inactive	
COc1ccc(NC(=O)Nc2ccc3c(c2)C(=O)N([C@H](C)CO)C[C@@H](C)[C@@H](CN(C)Cc2ccc(C(=O)O)cc2)OCCCC[C@@H](C)O3)cc1	inactive	
CCCN(C)C[C@@H]1OCCCC[C@@H](C)Oc2ccc(NS(=O)(=O)c3ccc(F)cc3)cc2C(=O)N([C@H](C)CO)C[C@@H]1C	inactive	
C[C@@H]1CCCCO[C@H](CN(C)Cc2ccc(C(=O)O)cc2)[C@H](C)CN([C@@H](C)CO)C(=O)c2cc(NC(=O)Nc3ccc(C(F)(F)F)cc3)ccc2O1	inactive	
O=C(O)c1cccc(NC(=O)c2ccccc2NC(=O)c2cccc([N+](=O)[O-])c2)c1	inactive	
CCn1cc(CN2CCCC(C(=O)Nc3ccc(-c4nc5ccccc5[nH]4)cc3)C2)c(C)n1 (stereo not given)	inactive	
C[C@@H]1CCCCO[C@@H](CN(C)CC2CC2)[C@@H](C)CN([C@H](C)CO)C(=O)c2cc(NS(=O)(=O)c3cccs3)ccc2O1	inactive	

SMILES	activity change, negative = inhibition (at 11 µM (top of the series))	further results
C[C@@H]1CCCCO[C@@H](CN(C)CC2CC2)[C@@H](C)CN([C@H](C)CO)C(=O)c2cc(NS(=O)(=O)c3ccc(Cl)cc3)ccc2O1	inactive	
CCCN(C)C[C@@H]1OCCCC[C@@H](C)Oc2ccc(NS(=O)(=O)c3ccc(C)cc3)cc2C(=O)N([C@H](C)CO)C[C@@H]1C		AC50: > 20 µM (inactive)
C[C@@H]1CCCCO[C@@H](CN(C)CC2CCCCC2)[C@H](C)CN([C@@H](C)CO)C(=O)c2cc(NC(=O)Nc3ccccc3)ccc2O1	inactive	
CCC(=O)N(C)C[C@H]1Oc2ncc(C#Cc3ccncc3)cc2C(=O)N([C@H](C)CO)C[C@H]1C	inactive	
CCCN(C)C[C@@H]1OCCCC[C@@H](C)Oc2ccc(NS(=O)(=O)c3c(C)noc3C)cc2C(=O)N([C@H](C)CO)C[C@@H]1C		AC50: > 20 µM (inactive)
COc1ccc(CN(C)C[C@@H]2OCCCC[C@H](C)Oc3ccc(NS(=O)(=O)c4cccs4)cc3C(=O)N([C@H](C)CO)C[C@@H]2C)cc1	inactive	
COc1ccc(S(=O)(=O)Nc2ccc3c(c2)C(=O)N([C@@H](C)CO)C[C@H](C)[C@H](CN(C)C)OCCCC[C@@H](C)O3)cc1	inactive	
COc1ccc(NC(=O)Nc2cccc3c2O[C@H](CN(C)Cc2ccc(C(=O)O)cc2)[C@H](C)CN([C@H](C)CO)C3=O)cc1	inactive	
C[C@H](CO)N1C[C@H](C)[C@H](CN(C)CC2CCCCC2)Oc2c(NC(=O)Nc3ccc4c(c3)OCO4)cccc2C1=O	inactive	
Cc1ccc(-c2cc(C(=O)N3CCCC3)c3ccccc3n2)s1	inactive	
COc1ccc(NC(=O)Nc2ccc3c(c2)C(=O)N([C@@H](C)CO)C[C@@H](C)[C@H](CN(C)Cc2ccc(C(=O)O)cc2)OCCCC[C@H](C)O3)cc1	inactive	
Cc1noc(C)c1NC(=O)Nc1ccc2c(c1)C(=O)N([C@H](C)CO)C[C@@H](C)[C@@H](CN(C)Cc1ccc(C(F)(F)F)cc1)OCCCC[C@@H](C)O2	inactive	
COc1ccc(CN(C)C[C@@H]2OCCCC[C@@H](C)Oc3ccc(NS(=O)(=O)c4cccs4)cc3C(=O)N([C@H](C)CO)C[C@H]2C)cc1	inactive	
O=C(Nc1ccc(C(F)(F)F)cc1)N1[C@@H]2CNC[C@H]1C2c1ccc(-c2ccncc2)cc1 (stereo not given in full)	inactive	
O=C(O)c1ccccc1NS(=O)(=O)c1cccc(-n2sc3ccccc3c2=O)c1		AC50: > 22 µM (inactive)
Cc1ccc(S(=O)(=O)Nc2ccc3c(c2)C(=O)N([C@@H](C)CO)C[C@H](C)[C@H](CN(C)C)OCCCC[C@@H](C)O3)cc1	inactive	
C[C@@H]1CCCCO[C@H](CN(C)Cc2ccccc2)[C@H](C)CN([C@H](C)CO)C(=O)c2cc(NS(=O)(=O)c3ccccc3)ccc2O1	inactive	
C[C@@H]1CCCCO[C@@H](CN(C)C)[C@H](C)CN([C@@H](C)CO)C(=O)c2cc(NC(=O)Nc3ccc(C(F)(F)F)cc3)ccc2O1		activity change, negative = inhibition (at 10 µM (top of the series)): inactive
C[C@@H]1CCCCO[C@@H](CN(C)C)[C@@H](C)CN([C@@H](C)CO)C(=O)c2cc(NS(=O)(=O)c3ccc(F)cc3)ccc2O1	inactive	
CCCN(C)C[C@@H]1OCCCC[C@@H](C)Oc2ccc(NS(=O)(=O)c3ccc(OC)cc3)cc2C(=O)N([C@H](C)CO)C[C@@H]1C		AC50: 11.2 µM

Source: PubChem BioAssay AID743340 (Broad Institute, 2014)
